Test: Metabolic stability test (microsomal metabolism test)
Type: in vitro ADME
Conditions: pH 7.4; human-derived liver microsomes, test compound remaining after addition of NADP+ and incubation at 37°C for 30 minutes; read-out: metabolic stability of T/C%
How it was run: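 Test compound was added as a 3 µM solution to human liver microsomes (0.3–1.5 mgP/mL) in pH 7.4 phosphate buffer with G6P, G6P dehydrogenase and MgCl2. This was preincubated 20 min at 37°C, then 3 mM NADP+ solution was added and incubated 30 min at 37°C. T/C (%) is compound remaining after versus before NADP+ addition.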

Remaining at 0.5 h, ≥ 50%:
CC(C)C1=C(C(=O)N2[C@H](C)CC[C@H]2C(=O)N2CCNC3(CC3)C2)SC2=N[C@@](C)(c3ccc(C#N)cc3)[C@@H](c3ccc(Cl)cc3)N21 [Example 28, 4-[(5R,6S)-5-(4-chlorophenyl)-2-{[(2S,5R)-2-(4,7-diazaspiro[2.5]oct-7-ylcarbonyl)-5-methylpyrrolidin-1-yl]carbonyl}-3-isopropyl-6-methyl-5,6-dihydroimidazo[2,1-b][1,3]thiazol-6-yl]benzonitrile]
CC(C)C1=C(C(=O)N2[C@H](C)CC[C@H]2C(=O)N2C[C@@H](C)NC3(CC3)C2)SC2=N[C@@](C)(c3ccc(Cl)nc3)[C@@H](c3ccc(Cl)c(F)c3)N21 [Example 17, (5R)-7-[(5R)-1-{ [(5R,6S)-5-(4-chloro-3-fluorophenyl)-6-(6-chloropyridin-3-yl)-3-isopropyl-6-methyl-5,6-dihydroimidazo[2,1-b][1,3]thiazol-2-yl]carbonyl}-5-methyl-L-prolyl]-5-methyl-4,7-diazaspiro[2.5]octane]
CC(C)C1=C(C(=O)N2[C@H](C)CC[C@H]2C(=O)N2CCNC3(CC3)C2)SC2=N[C@@](C)(c3ccc(Cl)c(N)c3)[C@@H](c3ccc(Cl)c(F)c3)N21 [Example 27, 2-chloro-5-[(5R,6S)-5-(4-chloro-3-fluorophenyl)-2-{[(2S,5R)-2-(4,7-diazaspiro[2.5]oct-7-ylcarbonyl)-5-methylpyrrolidin-1-yl]carbonyl}-3-isopropyl-6-methyl-5,6-dihydroimidazo[2,1-b][1,3]thiazol-6-yl]aniline]
CC(C)C1=C(C(=O)N2[C@H](C)CC[C@H]2C(=O)N2CCN(CCO)C3(CC3)C2)SC2=N[C@@](C)(c3ccc(Cl)cc3)[C@@H](c3ccc(Cl)c(F)c3)N21 [Example 7, 2-{7-[(5R)-1-{[(5R,6S)-5-(4-chloro-3-fluorophenyl)-6-(4-chlorophenyl)-3-isopropyl-6-methyl-5,6-dihydroimidazo[2,1-b][1,3]thiazol-2-yl]carbonyl}-5-methyl-L-prolyl]-4,7-diazaspiro[2.5]oct-4-yl}ethanol]
CC(C)C1=C(C(=O)N2[C@H](C)CC[C@H]2C(=O)N2CCN(CCO)C3(CC3)C2)SC2=N[C@@](C)(c3ccc(Cl)cc3)[C@@H](c3ccc(Cl)cc3)N21 [Example 3, 2-{7-[(5R)-1-{[(5R,6S)-5,6-bis(4-chlorophenyl)-3-isopropyl-6-methyl-5,6-dihydroimidazo[2,1-b][1,3]thiazol-2-yl]carbonyl}-5-methyl-L-prolyl]-4,7-diazaspiro[2.5]oct-4-yl}ethanol]
CC(C)C1=C(C(=O)N2CCC[C@H]2C(=O)N2CC3(CC3)NC[C@@H]2C)SC2=N[C@@](C)(c3ccc(Cl)nc3)[C@@H](c3ccc(Cl)c(F)c3)N21 [Example 57, (6S)-7-(1-{[(5R,6S)-5-(4-chloro-3-fluorophenyl)-6-(6-chloropyridin-3-yl)-3-isopropyl-6-methyl-5,6-dihydroimidazo[2,1-b][1,3]thiazol-2-yl]carbonyl}-L-prolyl)-6-methyl-4,7-diazaspiro[2.5]octane]
CC(C)C1=C(C(=O)N2[C@H](CF)CC[C@H]2C(=O)N2CCN(C)C3(CC3)C2)SC2=N[C@@](C)(c3ccc(Cl)nc3)[C@@H](c3ccc(Cl)c(F)c3)N21 [Example 41, 7-[(5S)-1-{[(5R,6S)-5-(4-chloro-3-fluorophenyl)-6-(6-chloropyridin-3-yl)-3-isopropyl-6-methyl-5,6-dihydroimidazo[2,1-b][1,3]thiazol-2-yl]carbonyl}-5-(fluoromethyl)-L-prolyl]-4-methyl-4,7-diazaspiro[2.5]octane]
CCN(C(=O)C1=C(C(C)C)N2C(=N[C@@](C)(c3ccc(Cl)cc3)[C@H]2c2ccc(Cl)cc2)S1)[C@@H](C)C(=O)N1CCNC2(CC2)C1 [Example 54, (5R,6S)-5,6-bis(4-chlorophenyl)-N-[(1S)-2-(4,7-diazaspiro[2.5]oct-7-yl)-1-methyl-2-oxoethyl]-N-ethyl-3-isopropyl-6-methyl-5,6-dihydroimidazo[2,1-b][1,3]thiazole-2-carboxamide]

From patent EP2298778A1, “IMIDAZOTHIAZOLE DERIVATIVE HAVING 4,7-DIAZASPIROÝ2.5¨OCTANE RING STRUCTURE” (Daiichi Sankyo Company, Limited, priority 2008, dated 2009)
